Each block holds one substance with its values, some of them ahead of it.
Key:
[1] = tested on: Ch-1 cell adhesion to PIIBNP; test: Inhibition of Ch-1 cell adhesion to PIIBNP by synthetic blocking peptides and integrin antibodies; assay type: cell-based, human
Protocol: (§1) Cell Adhesion Assay. Cell adhesion assays were performed using a spectrometric method. A 96-well plate was coated at 4° C. overnight with recombinant proteins. Wells were washed three times with RPMI-1640 medium containing 10% FBS. Ch-1 cells were harvested with limited trypsin digestion and plated at 5×10^4 cells per well in RPMI-1640 medium supplemented with 10% FBS for an hours. Proteins were added and incubation continued for 1 hour. The wells were washed three times with pre-warmed PBS to remove non-adherent cells. The adherent cells were fixed with 4% paraformaldehyde in PBS for 10 minutes at room temperature and stained with 0.5% toluidine blue for 5 minutes. The wells were rinsed with water and cells were solubilized with 0.1% SDS. Absorbance at 595 nm was recorded on a SpectraMax plate reader. Synthetic blocking peptides and antibodies to αVβ3 and αVβ5 integrin were pre-incubated with cells for 15 to 30 mins before they were added onto the wells in the inhibition assays.
Antibodies. Monoclonal antibodies used for blocking experiments were: mouse anti αVβ3 and αVβ5 integrins (Chemicon). Polyclonal antibodies for immunohistochemistry and western blotting were rabbit anti human αV, α2, α3, α5, β1, β3, β5 integrin, goat anti human actin (Santa Cruz), mouse anti exon 2, rabbit anti GSTexon 2, and chicken anti PIIBNP (antiserum made in our lab).

Ch-1 cells [2] = test: Cell adhesion assay (Ch-1 cells on wells coated with recombinant proteins); assay type: cell-based, human; conditions: wells coated with recombinant protein
Protocol: as §1
Cell Culture. Human Chondrosarcoma cell line (Ch-1) was isolated from a portion of chondrosarcoma tumor (Chansky et al., J Orthop Res. (1998) 16(5):521-30). The Ch-1 cell line was maintained in RPMI-1640 supplemented with 10% FBS and at 37° C. in a humidified, 5% CO2 atmosphere.

Ch-1 cells [3] = test: Detection of cell death in Ch-1 cells; assay type: cell-based, human; conditions: 0.8 μM, serum free medium, 24 hrs; type I collagen, fibronectin or Matrigel coated plates
Protocol: Cell Culture. Human Chondrosarcoma cell line (Ch-1) was isolated from a portion of chondrosarcoma tumor. The Ch-1 cell line was maintained in RPMI-1640 supplemented with 10% FBS and at 37° C. in a humidified, 5% CO2 atmosphere. Human chondrocytes were obtained from Dr. Davis Adkisson (ISTO Technologies, St. Louis) or isolated from macroscopically intact tissue obtained from total joint arthroplasty as described (Bassleer et al., 1998). HeLa 229 cells and MDA-MB 231 cell lines were provided by Dr. Kathy Weilbaecher (Washington University) and were cultured in RPMI medium supplemented with 10% FBS. HUVEC cells were a gift from Dr. William Frazier (Washington University) and were cultured in M199 Earle's medium with 10 units/ml of penicillin, 5 μg/ml streptomycin and 0.25 μg/ml Fungizone supplemented with 10% FBS, 0.1 mg/ml L-glutamine, 25 mM Hepes, 16 units/ml of heparin (Sigma) and 0.1 mg/ml endothelial cell mitogen (Biochemical Technologies).
Detection of Cell Death. Cells were cultured to confluence in a 24-well plate pre-coated with type I collagen, fibronectin (Sigma), and ECM Matrigel (Becton Dickinson). Proteins in serum-free medium were added to the cells. Cells were monitored by light microscopy and images were digitally photographed using a Q capture Retiga 2000R camera. Quantification of cells remaining in the well was performed by washing with PBS for three times, fixing with 4% paraformaldehyde. The cells per field (×400) were counted for three field per well (3 wells per measurement). The mean number and standard deviation (SD) were calculated.

HUVEC cells = test: HUVEC cell death; assay type: cell-based, human; conditions: 60 hrs, 37° C.; higher concentrations
Protocol: FIG. 6 depicts photographs and graphs showing that PIIBNP inhibits angiogenesis. […] Quantification of tube formation was calculated based on branch points per field of view (FIG. 6C) for each treatment ranging from 0.1 μM to 10 μM of PIIBNP. […] GST (▴) and PIIANP (●) had no effect on the cells.
As a second test for angiogenesis, we tested the ability of PIIBNP to inhibit outgrowth of endogenous endothelial cells from freshly isolated rat aorta. […] In order to determine whether PIIBNP caused endothelial cell death, the number of HUVEC cells present after incubation with PIIBNP was determined (FIGS. 6E and 8). Tube formation was inhibited by 50% with 0.1 μM PIIBNP, with no cell death. […] Consequently, PIIBNP can inhibit angiogenesis in a cell line and in endogenous endothelial cells mediated by integrins αVβ3 and αVβ5.

αVβ5 integrin = target: T1, αVβ5 integrin (Homo sapiens, UniProt P06756+P18084); test: Cell surface labeling and GST pull-down with immunoblotting; assay type: binding; conditions: biotin-labeled Ch-1 membrane proteins, Western blot
T1 construct: Ch-1 membrane proteins were labeled with biotin, and PIIBNP was used to isolate the integrin molecules; endogenous in cells; host or cells: Ch-1 human chondrosarcoma cells (surface-biotinylated, lysed)
T1 sequence (P06756 31-889 limits assumed): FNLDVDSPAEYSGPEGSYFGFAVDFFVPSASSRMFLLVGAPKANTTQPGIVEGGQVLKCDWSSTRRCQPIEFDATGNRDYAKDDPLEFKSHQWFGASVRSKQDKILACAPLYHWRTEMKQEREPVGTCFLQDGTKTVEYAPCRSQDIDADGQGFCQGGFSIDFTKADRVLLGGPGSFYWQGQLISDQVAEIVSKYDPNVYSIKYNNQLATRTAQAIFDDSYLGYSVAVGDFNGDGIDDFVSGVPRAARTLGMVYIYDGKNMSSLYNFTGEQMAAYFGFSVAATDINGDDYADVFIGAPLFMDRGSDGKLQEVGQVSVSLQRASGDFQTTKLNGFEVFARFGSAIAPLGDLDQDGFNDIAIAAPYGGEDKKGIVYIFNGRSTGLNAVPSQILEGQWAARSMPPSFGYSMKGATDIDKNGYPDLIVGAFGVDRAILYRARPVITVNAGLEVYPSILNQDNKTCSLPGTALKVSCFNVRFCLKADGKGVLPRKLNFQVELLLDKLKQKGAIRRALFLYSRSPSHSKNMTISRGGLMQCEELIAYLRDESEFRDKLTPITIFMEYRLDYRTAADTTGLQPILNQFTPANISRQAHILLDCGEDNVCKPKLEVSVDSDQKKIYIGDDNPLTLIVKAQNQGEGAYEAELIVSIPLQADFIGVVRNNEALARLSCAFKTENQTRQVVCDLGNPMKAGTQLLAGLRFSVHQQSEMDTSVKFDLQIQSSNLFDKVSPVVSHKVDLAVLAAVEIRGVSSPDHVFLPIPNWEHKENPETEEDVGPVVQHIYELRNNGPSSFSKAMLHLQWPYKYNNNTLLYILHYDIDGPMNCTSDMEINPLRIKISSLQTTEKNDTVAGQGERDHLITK
T1 sequence (P06756 891-1048 limits assumed): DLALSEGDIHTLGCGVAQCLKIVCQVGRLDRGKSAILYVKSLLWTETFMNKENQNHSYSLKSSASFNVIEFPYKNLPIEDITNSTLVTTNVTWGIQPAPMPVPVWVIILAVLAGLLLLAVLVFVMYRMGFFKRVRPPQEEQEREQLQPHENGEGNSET
T1 sequence (P18084 24-799): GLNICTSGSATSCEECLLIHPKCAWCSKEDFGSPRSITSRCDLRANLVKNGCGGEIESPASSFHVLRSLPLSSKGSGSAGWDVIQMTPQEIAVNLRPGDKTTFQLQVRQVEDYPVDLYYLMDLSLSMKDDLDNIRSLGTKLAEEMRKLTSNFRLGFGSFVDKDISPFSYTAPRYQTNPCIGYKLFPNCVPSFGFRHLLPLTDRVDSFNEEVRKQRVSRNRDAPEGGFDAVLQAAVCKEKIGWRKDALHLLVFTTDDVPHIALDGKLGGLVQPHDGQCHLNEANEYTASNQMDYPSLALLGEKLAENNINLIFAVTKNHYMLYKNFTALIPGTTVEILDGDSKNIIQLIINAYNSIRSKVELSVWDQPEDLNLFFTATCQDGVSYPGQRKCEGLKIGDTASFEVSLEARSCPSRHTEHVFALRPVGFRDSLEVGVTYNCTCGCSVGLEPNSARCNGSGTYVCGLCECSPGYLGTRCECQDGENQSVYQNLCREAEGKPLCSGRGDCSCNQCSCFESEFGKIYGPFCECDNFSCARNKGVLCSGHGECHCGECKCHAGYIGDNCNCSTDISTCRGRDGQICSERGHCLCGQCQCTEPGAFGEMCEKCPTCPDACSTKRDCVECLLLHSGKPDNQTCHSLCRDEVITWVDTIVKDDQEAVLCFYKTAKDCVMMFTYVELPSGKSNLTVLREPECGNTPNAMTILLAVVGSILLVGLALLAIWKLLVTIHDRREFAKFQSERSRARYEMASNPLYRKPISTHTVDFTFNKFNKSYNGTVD
Protocol: (§2) Immunoblotting. Western blotting was performed as described (7). Blots were probed with the following primary antibodies: rabbit anti αV, α2, α3, α5, β1, β3, β5 integrin and goat anti actin (Saint Cruz), chicken anti PIIBNP antiserum, and mouse anti exon 2 antiserum.
(§3) Cell Surface labeling and GST Pull-down Assay. Ch-1 cells were incubated with EZ-link Sulfo-NHS-Biotin reagent for 30 mins. according to the product instruction (Sigma). After 3 washes with 0.1 M glycine in PBS, the cells were lysed with a lysis buffer described above. The lysate was incubated with glutathione derivatized agarose beads previously bound with GST, PIIANP, PIIBNP or mPIIBNP for 1 hr. at RT. […] The membrane was washed and incubated with antibodies and then incubated with a secondary antibody coupled to horseradish peroxidase. The antibody complex was visualized by enhanced chemiluminescence.

αVβ3 integrin = target: T2, αVβ3 integrin (Homo sapiens, UniProt P05106+P06756); test: as above; assay type: binding; conditions: biotin-labeled Ch-1 membrane proteins, Western blot
T2 construct: Ch-1 membrane proteins were labeled with biotin, and PIIBNP was used to isolate the integrin molecules; endogenous in cells; host or cells: Ch-1 human chondrosarcoma cells (surface-biotinylated, lysed)
T2 sequence (P06756 31-889 limits assumed): as the sequence (P06756 31-889 limits assumed) above
T2 sequence (P06756 891-1048 limits assumed): as the sequence (P06756 891-1048 limits assumed) above
T2 sequence (P05106 27-788): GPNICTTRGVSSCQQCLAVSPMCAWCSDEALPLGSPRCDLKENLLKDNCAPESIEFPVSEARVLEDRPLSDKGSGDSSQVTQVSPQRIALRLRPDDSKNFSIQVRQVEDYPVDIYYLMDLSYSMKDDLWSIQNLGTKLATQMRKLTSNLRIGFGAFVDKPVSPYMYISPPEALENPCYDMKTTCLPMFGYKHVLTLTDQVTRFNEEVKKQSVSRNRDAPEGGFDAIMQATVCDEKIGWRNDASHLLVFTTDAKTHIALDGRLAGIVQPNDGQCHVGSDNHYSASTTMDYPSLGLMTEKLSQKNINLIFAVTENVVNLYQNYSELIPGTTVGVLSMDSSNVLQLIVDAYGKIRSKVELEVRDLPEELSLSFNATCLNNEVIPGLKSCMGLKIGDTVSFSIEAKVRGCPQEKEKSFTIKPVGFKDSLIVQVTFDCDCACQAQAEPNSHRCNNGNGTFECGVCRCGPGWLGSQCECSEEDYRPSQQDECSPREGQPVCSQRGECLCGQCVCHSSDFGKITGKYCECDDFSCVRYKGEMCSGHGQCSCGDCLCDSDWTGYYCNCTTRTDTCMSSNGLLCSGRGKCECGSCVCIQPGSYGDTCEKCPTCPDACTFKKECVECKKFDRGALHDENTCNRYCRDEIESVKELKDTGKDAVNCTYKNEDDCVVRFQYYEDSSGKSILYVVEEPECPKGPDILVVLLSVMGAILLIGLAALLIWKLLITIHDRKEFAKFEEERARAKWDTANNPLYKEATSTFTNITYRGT
Protocol: as §2, §3

Substance: GRGDNP (listed as Homo sapiens)
- inhibition of adhesion ([1]; at 10 μM): 50%
- compete and inhibit adhesion ([1]; synthetic peptides pre-incubated with cells): compete and inhibit adhesion

Substance: PIIBNPn: PIIBNP obtained by cleavage of GST from a GST-PIIBNP fusion protein with thrombin beads
- adhesion to Ch-1 cells (Ch-1 cells [2]): strong binding

- binding to integrin αVβ5 (αVβ5 integrin): does not
- binding to integrin αVβ3 (αVβ3 integrin): does not
Substance: GST: Recombinant GST alone, control protein for the GST fusion proteins [reference compound]
- induction of cell death in Ch-1 cells (Ch-1 cells [3]): did not induce cell death
- HUVEC cell death (HUVEC cells): no effect

Substance: GRADNP (listed as Homo sapiens)
- inhibition of adhesion ([1]; at 60 μM): ~50%

From US7851436B2, “Inhibition of migration and induction of cell death by the type II collagen amino propeptides” (Washington University, priority 2007, dated 2010)
